Laboratory results from US20190015423A1, “REGULATION OF GENE EXPRESSION BY MODULATING PRIMARY CILIA LENGTH” (THE TRUSTEES OF COLUMBIA UNIVERSITY IN THE CITY OF NEW YORK, priority 2016, published 2019).
“Also recorded” adds a separate entry of the source. Read-outs that look alike come from different tables or passages of the source.

What was measured:
[1] = test system: C57Bl/6 mice; assay: Load-induced bone formation: compressive ulnar loading and dynamic histomorphometry; type: in vivo
Excerpt: All data are shown in reference to the non-loaded contralateral limb as control. […] On day 4-6 the mice were subjected to daily axial compressive ulnar loading. Mice were placed under isoflurane anesthesia and forelimbs were placed between two loading cups controlled by an electromagnetic loading system with feedback control (Bose, ELF 3220). An initial 0.1 N preload was applied, followed by 3 N of cyclic compression applied with a 2 Hz sine wave for 120 cycles, generating a strain gage verified average peak deformation of 1895 μstrain. On day 8, mice were subcutaneously injected with calcein (10 mg/kg) and alizarin red (70 mg/kg) on day 12. Mice were euthanized on day 18 and prepared for dynamic histomorphometric analysis.
Compressive ulnar loading was applied on days 5-7 to mechanically stimulate bone (3N at 2 Hz for 120 cycles) [9].
On the final three days of drug or control injection, animals were also subjected to compressive ulnar load at a peak load of 3 N using a 2 Hz sine wave for 120 cycles, as previously described (Temiyasathit, S. et al. PLoS One 7, (2012); Lee, K. L. et al. FASEB J. 28, 1157-1165 (2014)). Contralateral limbs served as a non-loaded control. 2 days following load, mice were treated with 10 mg/kg calcein (Sigma), and 4 days later 70 mg/kg alizarin (Sigma), with mice being sacrificed 6 days later.
Dynamic histomorphometry was performed as previously described, measuring the amount and separation of calcein and alizarin labels to quantify mineralizing surface (rMS/BS), mineral apposition rate (rMAR), and bone formation rate (rBFR/BS) relative to non-loaded controls (Temiyasathit, S. et al. PLoS One 7, (2012); Lee, K. L. et al. FASEB J. 28, 1157-1165 (2014)). Left and right ulnae were dissected and preserved in ethanol. Samples were then infiltrated with methyl methacrylate, and embedded in methyl methacrylate and benzoyl peroxide. Transverse sections of the ulnar midshaft were imaged on a laser scanning confocal microscope (Olympus Fluoview FV1000). Measurements of outer bone perimeter (OP), single label perimeter (SL), double label perimeter (DL), and double label area (DA) were made in ImageJ. The mineralizing surface relative to outer bone surface (MS/BS), mineral apposition rate (MAR), and bone formation rate (BFS/BS) were calculated as:
Relative measurements—rMS/BS, rMAR, rBFR/BS—were determined by subtracting non-loaded from loaded ulnae to display differences due to mechanical load.

[2] = test system: MLO-Y4 osteocytes; assay: High-throughput drug screening of primary cilia length and incidence; type: cell-based
In short: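 MLO-Y4 osteocytes on collagen I, treated 16 h with 10 μM compound in triplicate, fixed, stained for acetylated α-tubulin and Hoechst, imaged at 40× (4 fields/well); cilia length and incidence normalized to plate DMSO controls. Hits ranked by SD from population mean, requiring ≥40% viability by nuclei count.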

[3] = test system: MC3T3 osteoblasts; assay: Flow-induced paracrine signaling: conditioned media of treated osteocytes on osteoblasts (OPN mRNA); type: cell-based; settings: osteocytes treated with tubastatin 5 μM 3-4 hours; 12 hrs flow; osteoblasts cultured 24 hours
[4] = test system: MLO-Y4 osteocytes; assay: Oscillatory fluid flow-induced mRNA expression (COX-2, OPN, AC6), flow vs no flow; type: cell-based
[5] = test system: MLO-Y4 osteocytes; assay: Primary cilia length and incidence by immunocytochemistry (acetylated α-tubulin); type: cell-based
Procedure: MLO-Y4 osteocytes were cultured on collagen-coated dishes in MEMα (Life Tech) supplemented with 5% fetal bovine serum, 5% calf serum, and 1% penicillin/streptomycin at 37° C. and 5% CO2. […] These agents, or their vehicle control, were applied to cells for 16 h prior to experimentation. MTT, (methylthiazolyldiphenyl-tetrazolium bromide) assay (Sigma) was performed according to manufacturer's protocol to assess cell viability during drug treatments. Phase contrast microscopy with an Olympus CKX41 inverted microscope and 40× objective was used to assess cell morphology.
For primary cilia imaging and analysis, cells cultured on collagen I-coated glass were fixed in 10% formalin and treated with anti-acetylated α-tubulin primary antibody, 1:1, from a C3B9 hybridoma cell line (Sigma). Cilia were visualised with Alexa-Fluor 488 secondary antibody, 1:1000 (Life Technologies) and imaged with a 100× oil objective on an Olympus Fluoview FV1000 confocal microscope. Nuclei were stained with DAPI (Life Technologies). Cilia length was analyzed using Image J software.
Gene silencing was performed by siRNA mediated knockdown and compared to scramble siRNA control (Life Technologies). […]

[6] = 10 μM, 16 hours, triplicate, normalized to vehicle control, standard deviation away from the population average
[7] = AC6 siRNA, mechanically stimulated cells

With `CCCCCCCCCC(=O)O[C@@H]1[C@@H](C)[C@@]2(O)[C@@H](C=C(CO)C[C@@]3(O)C(=O)C(C)=C[C@@H]23)[C@@H]2C(C)(C)[C@]12OC(=O)CCCCCCCCC` [4αPDD] the “relative bone formation rate (rBFR/BS) compared to vehicle control” value ([1]; 4αPDD 250 μg/kg s.c. 6 consecutive days, load day 4-6, n=3, preliminary study) was “did not promote a significant increase”.

In the case of `O=C(CCCCCCC(=O)Nc1ccccc1)NO` [Vorinostat], the “Average Length SD Away” value [2, 6] is reported as 3.283 SD.

In the case of `CN(C)CCc1c[nH]c2ccc(C[C@H]3COC(=O)N3)cc12` [Zolmitriptan (Zomig), Zolmitriptan], the “Average Incidence SD Away” value [2, 6] is reported as 1.521 SD.

In the case of `COc1cc2c(cc1OC)C1C(=O)c3c(cc4c(c3O)C=CC(C)(C)O4)OC1CO2` (stereo not drawn) [beta-TOXICAROL], the “Average Length SD Away” value [2, 6] is reported as 1.664 SD.

With `CN1CCc2c(c3ccccc3n2Cc2ccc(C(=O)NO)cc2)C1` [tubastatin, tubastatin A] the “osteoblast osteogenic gene (osteopontin, OPN) expression after conditioned media from flow-stimulated osteocytes” value [3] was “decreased; also recorded: impaired”, the “relative bone formation rate (rBFR)” value ([1]; tubastatin 5 mg/kg s.c. 6 consecutive days, load day 4-6, n=3, preliminary study) was “did not elicit a marked change” and the “relative bone formation rate (rBFR)” value ([1]; tubastatin 5 mg/kg s.c. 6 consecutive days, load day 4-6, n=3, preliminary study, listed as Tubastatin) was “slightly decreased”. The “decrease in active mineralizing surface (rMS/BS)” value ([1]; tubastatin 5 mg/kg s.c. 6 consecutive days, data not shown) was “over 50%”.

For (S)-(+)-Niguldipine hydrochloride, the “Average Length SD Away” value [2] was 2.267 SD.

With “AC6 siRNA: siRNA 5′-CCTGCCACCTACAACAGCTCAATTA-3′ (SEQ ID NO:2) (listed as DNA, chemistry not given here)” the “decrease of AC6 expression” value [4, 7] was 50%±3%, the “decrease of flow-induced OPN expression” value [4, 7] was 30%±3% and the cilia incidence ([5]; AC6 siRNA) was “no effect; also recorded: Neither AC6 siRNA nor fenoldopam alter cilia incidence”. For the same molecule, the “decrease in cilia length” value ([5]; AC6 siRNA) was 10%±3%.

Gabexate mesylate was tested, and the “Average Incidence SD Away” value [2, 6] was 1.87 SD.

With “IFT88 siRNA: siRNA 5′-CCAGAAACAGATGAGGACGACCTTT-3′ (SEQ ID NO:1) (listed as DNA, chemistry not given here)” the “decrease of flow-induced OPN mRNA expression compared to scramble control” value ([4]; IFT88 siRNA, flow 1 h) was 43%±2%, the “primary cilia incidence compared to scramble control” value ([5]; 20 μM IFT88 siRNA, 48 hours) was “lower incidence; also recorded: decreases” and the “primary cilia length compared to scramble control” value ([5]; 20 μM IFT88 siRNA, 48 hours) was “significantly shorter; also recorded: decreased”.

With MONENSIN SODIUM the “Average Length SD Away” value [2, 6] was 1.722 SD.

In the case of Ro 19-4605, the “Average Length SD Away” value [2, 6] is reported as 1.584 SD.

S(−)-Atenolol was tested, and the “Average Incidence SD Away” value [2, 6] was 2.177 SD and the “Average Length SD Away” value [2, 6] was 2.057 SD.
